The subject of assay [1] is Liver cancer cell line HUH-7 cells. The assay can be described thus: Antitumor test, mouse subcutaneous transplantation model, HUH-7. The settings on record: HUH-7 in nude mice, 4 consecutive days, tumor measured three days after final administration. Type of assay: in vivo. From the text:
(§1) In vivo test of test compound: Antitumor test using mouse subcutaneous transplantation model
Liver cancer cell line HUH-7 cells were dissociated from a culture flask by trypsin treatment, then suspended in an RPMI1640 medium containing 10% FBS, and then centrifuged to remove the supernatant. The cells were washed with PBS twice and then suspended in BD Matrigel Basement Membrane Matrix (manufactured by BD Biosciences). The cell suspension was subcutaneously transplanted at a dose of 5×10^6 cells/mouse to the right axillary regions of 6-week-old nude mice (CAnN.Cg-Foxn1[nu]/CrlCrlj[Foxn1nu/Foxn1nu], Charles River Laboratories Japan, Inc.). The test was conducted by using cancer-bearing mice having an estimated tumor volume (major axis×minor axis×minor axis/2) of 70 to 180 mm3 and grouping the cancer-bearing mice without significant difference in average estimated tumor volume from a negative control group. The compound of Example 113 was suspended in solvent (EtOH/DMA/Solutol HS-15/PEG400/5% HMPC). The suspension was orally administered to each mouse twice a day (BID) at a dose of 75 or 150 mg/kg for 4 consecutive days. Three days after the final administration date, the tumor sizes were measured.
The rate of tumor growth inhibition was also calculated in this test according to the following expression and is shown in a table. […]

The subject of a further assay is A-498. The assay can be described thus: Cell growth inhibition test, A-498. The note with it: Homo sapiens, A498, 72 h; A-498, Kidney cancer, 3 days, CellTiter-Glo. The format is cell-based. How it is done:
(§2) A cell growth inhibition test was carried out by treating a cultured cancer cell line with a test compound for a given period and then counting the number of viable cells by CellTiter-Glo Luminescent Cell Viability Assay (manufactured by Promega Corp.).
(§3) The following cells were inoculated to a 384-well plate containing the compound prepared in advance at predetermined concentrations. […]
(§4) The cells thus inoculated were cultured at 37° C. for 3 days under 5% CO2. […] Then, luminescence intensity was measured using a plate reader.
(§5) The number of viable cells and luminescence intensity have been confirmed to correlate with each other. Therefore, the rate of cell growth was calculated according to the following expression: Rate of cell growth (T/C %) of a test compound-supplemented well=100×[(B−C)/(A−C)] wherein A represents the luminescence intensity (final culture date) of a test compound-free well; B represents the luminescence intensity (final culture date) of a test compound-containing well; and C represents the luminescence intensity (day of cell inoculation) of a well at the start of contact of the cells with the test compound.
(§6) T/C % at the concentration of each of the serially diluted test compounds was determined. […]
For orientation: Cellular ATP, detected with luciferase, serves as a proxy for viable cell number.

Another assay concerns NCI-H146. The assay can be described thus: Cell growth inhibition test, NCI-H146. The settings on record: Homo sapiens, 72 h; NCI-H146, Lung cancer, 3 days, CellTiter-Glo. Type of assay: cell-based. Here is the method:
as §2, §3, §4, §5, §6

The next assay has as its system OVCAR-5. The assay can be described thus: Cell growth inhibition test, OVCAR-5. Type of assay: cell-based. The note with it: Homo sapiens, 72 h; OVCAR-5, Ovary cancer, 3 days, CellTiter-Glo. Here is the method: as §2, §3, §4, §5, §6
Another assay has as its system RKO. The assay can be described thus: Cell growth inhibition test, RKO. The note with it: Homo sapiens, 72 h, Large intestine cancer, 3 days, CellTiter-Glo. Type of assay: cell-based. Here is the method:
as §2, §3, §4, §5, §6

Assay [2] deals with Lung cancer cell line COR-L23 cells. The assay can be described thus: Antitumor test, mouse subcutaneous transplantation model, COR-L23. The settings on record: COR-L23 in nude mice, 4 consecutive days, tumor measured next day. The format is in vivo.
Description: as §1
Lung cancer cell line COR-L23 cells were dissociated from a culture flask by trypsin treatment, then suspended in an RPMI1640 medium containing 10% FBS, and then centrifuged to remove the supernatant. The cells were washed with this medium twice and then suspended in PBS. The cell suspension was subcutaneously transplanted at a dose of 5×10^6 cells/mouse to the right axillary regions of 6-week-old nude mice (BALB/cAJc1-nu/nu, CLEA Japan, Inc.). The test was conducted by using cancer-bearing mice having an estimated tumor volume (major axis×minor axis×minor axis/2) of 100 to 150 mm3 and grouping the cancer-bearing mice without significant difference in average estimated tumor volume from a negative control group. The compound of Example 113 was suspended in solvent (EtOH/DMA/Solutol HS-15/PEG400/5% HMPC). The suspension was orally administered to each mouse once a day (QD) at a dose of 75, 150, or 300 mg/kg for 4 consecutive days. On the next day, the tumor sizes were measured.
The rate of tumor growth inhibition was also calculated in this test according to the following expression and is shown in a table.
Rate of tumor growth inhibition (%)=100−(Average value of the tumor volumes of the test compound administration group)/(Average value of the tumor volumes of the vehicle administration group)×100.

The subject of another assay is U266B1. The assay can be described thus: Cell growth inhibition test, U266B1. Type of assay: cell-based. The settings on record: Homo sapiens, 72 h; U266B1, Multiple myeloma, 3 days, CellTiter-Glo. How it is done: as §2, §3, §4, §5, §6
The next assay has as its system KASUMI-1. The assay can be described thus: Cell growth inhibition test, KASUMI-1. Type of assay: cell-based. The settings on record: Homo sapiens, 72 h; KASUMI-1, Leukemia, 3 days, CellTiter-Glo. How it is done:
as §2, §3, §4, §5, §6

As for `CCOc1cc(F)c(Cl)cc1C(=O)NCC(C)(C)CC(=O)Nc1c(COC)n(C)n(-c2ccccc2)c1=O` [Example 113, 5-Chloro-2-ethoxy-4-fluoro-N-(4-{[5-(methoxymethyl)-1-methyl-3-oxo-2-phenyl-2,3-dihydro-1H-pyrazol-4-yl]amino}-2,2-dimethyl-4-oxobutyl)benzamide], the “Rate of tumor growth inhibition (%)” value in assay [1] (75 mg/kg orally BID) came out at 46%; in assay [1] (150 mg/kg orally BID), 63%; in assay [2] (75 mg/kg orally QD), 39%; in assay [2] (150 mg/kg orally QD), 52%; in assay [2] (300 mg/kg orally QD), 81%. The GI50 with A-498 turned out to be 430 nM; in the assay on NCI-H146 it was 2000 nM; with OVCAR-5, 570 nM; in the assay on RKO, 310 nM; with U266B1 it was 440 nM; in the assay with KASUMI-1 it was 230 nM.
As for `CCOc1ncc(Cl)cc1C(=O)NCC(C)(C)CC(=O)Nc1c([C@H](C)CN(C)C)n(C)n(-c2ccccc2)c1=O` [Example 73, 5-Chloro-N-[4-({5-[(1R)-2-(dimethylamino)-1-methylethyl]-1-methyl-3-oxo-2-phenyl-2,3-dihydro-1H-pyrazol-4-yl}amino)-2,2-dimethyl-4-oxobutyl]-2-ethoxypyridine-3-carboxamide], the GI50 in the assay with A-498 came out at 940 nM; in the assay on NCI-H146, 2700 nM; in the assay on OVCAR-5, 750 nM; in the assay with RKO, 570 nM; with U266B1, 620 nM; in the assay with KASUMI-1 it was 240 nM.
In the case of `CCOc1ccc(Cl)cc1C(=O)NCC(C)(C)CC(=O)Nc1c([C@H](C)CN(C)C)n(C)n(-c2ccccc2)c1=O` [Example 68, 5-Chloro-N-[4-({5-[(1R)-2-(dimethylamino)-1-methylethyl]-1-methyl-3-oxo-2-phenyl-2,3-dihydro-1H-pyrazol-4-yl}amino)-2,2-dimethyl-4-oxobutyl]-2-ethoxybenzamide], the GI50 came to 540 nM with A-498; 1100 nM in the assay on NCI-H146; 540 nM in the assay with OVCAR-5; 240 nM in the assay with RKO; 220 nM in the assay on U266B1; 140 nM in the assay with KASUMI-1.

Usually GI50 stands for the concentration giving 50% growth inhibition. Low readings indicate greater sensitivity of the cells, high ones lower sensitivity of the cells.
